Eleven molecules from ChEMBL document CHEMBL1148338, “Structure-activity relationships at monoamine transporters for a series of N-substituted 3alpha-(bis[4-fluorophenyl]methoxy)tropanes: comparative molecular field analysis, synthesis, and pharmacological evaluation” (J Med Chem, 2004) can be followed below.

For one data set, the species on record is Rattus norvegicus. Put plainly: Compound was tested for inhibition of [3H]dopamine uptake (DAUI) in rat synaptosomes. The data set is classed as functional. The settings on record: Brain.
Data set [1] has as its target Sodium-dependent serotonin transporter (Rattus norvegicus, UniProt P31652). As to the kind of experiment: Binding affinity at serotonin transporter in rat brain by [3H]-citalopram displacement. The data set is classed as tissue-based.
Data set [2] concerns the target T1, Muscarinic acetylcholine receptor M1 (Rattus norvegicus, UniProt P08482).
T1 sequence (P08482 whole entry): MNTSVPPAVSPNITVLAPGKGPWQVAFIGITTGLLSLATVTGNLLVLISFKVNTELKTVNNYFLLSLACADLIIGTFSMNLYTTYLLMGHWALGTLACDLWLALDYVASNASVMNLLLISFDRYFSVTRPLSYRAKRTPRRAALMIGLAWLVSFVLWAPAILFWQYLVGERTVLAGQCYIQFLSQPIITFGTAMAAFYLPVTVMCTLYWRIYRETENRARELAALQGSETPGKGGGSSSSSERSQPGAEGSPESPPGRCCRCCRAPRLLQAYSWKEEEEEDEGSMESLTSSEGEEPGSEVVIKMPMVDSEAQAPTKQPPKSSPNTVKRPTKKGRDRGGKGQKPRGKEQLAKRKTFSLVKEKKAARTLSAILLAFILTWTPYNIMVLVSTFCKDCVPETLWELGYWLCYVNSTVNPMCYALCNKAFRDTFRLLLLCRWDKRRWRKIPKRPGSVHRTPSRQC
Put plainly: Binding affinity at muscarinic M1 receptor in rat brain by [3H]pirenzepine displacement. Type of data set: tissue-based.

In data set [3] the target is Sodium-dependent dopamine transporter (Rattus norvegicus, UniProt P23977). As to the kind of experiment: biochemical. The data set is classed as tissue-based, Brain.
Description: Binding affinity at dopamine transporter in rat brain by [3H]WIN-35428 displacement.
Data set [4] concerns the target Norepinephrine transporter (Rattus norvegicus, UniProt Q9WTR4). As to the kind of experiment: Displacement of [3H]nisoxetine from norepinephrine transporter (NET) of rat brain. Type of data set: tissue-based.
Data set [5] can be described thus: Partition coefficient (logD). The conditions noted are these: octanol/water.

Chain of Sodium-dependent dopamine transporter (P23977 whole entry): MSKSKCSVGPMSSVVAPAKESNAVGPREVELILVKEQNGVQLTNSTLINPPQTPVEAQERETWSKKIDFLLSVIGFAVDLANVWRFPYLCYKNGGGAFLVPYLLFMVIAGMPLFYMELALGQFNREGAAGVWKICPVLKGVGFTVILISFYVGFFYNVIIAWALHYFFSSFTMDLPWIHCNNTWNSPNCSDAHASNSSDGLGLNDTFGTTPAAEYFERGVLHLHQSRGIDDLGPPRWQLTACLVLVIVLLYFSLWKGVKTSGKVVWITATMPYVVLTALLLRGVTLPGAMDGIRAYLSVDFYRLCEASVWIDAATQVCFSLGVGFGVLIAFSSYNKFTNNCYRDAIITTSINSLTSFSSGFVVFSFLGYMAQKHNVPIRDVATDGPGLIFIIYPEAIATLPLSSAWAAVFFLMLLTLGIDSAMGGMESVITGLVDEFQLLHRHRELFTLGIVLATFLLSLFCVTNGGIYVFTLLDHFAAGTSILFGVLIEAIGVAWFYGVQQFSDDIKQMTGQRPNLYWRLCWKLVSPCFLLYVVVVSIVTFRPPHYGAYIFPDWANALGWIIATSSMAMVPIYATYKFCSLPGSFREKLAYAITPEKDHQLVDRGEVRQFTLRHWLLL
Chain of Sodium-dependent serotonin transporter (P31652 whole entry): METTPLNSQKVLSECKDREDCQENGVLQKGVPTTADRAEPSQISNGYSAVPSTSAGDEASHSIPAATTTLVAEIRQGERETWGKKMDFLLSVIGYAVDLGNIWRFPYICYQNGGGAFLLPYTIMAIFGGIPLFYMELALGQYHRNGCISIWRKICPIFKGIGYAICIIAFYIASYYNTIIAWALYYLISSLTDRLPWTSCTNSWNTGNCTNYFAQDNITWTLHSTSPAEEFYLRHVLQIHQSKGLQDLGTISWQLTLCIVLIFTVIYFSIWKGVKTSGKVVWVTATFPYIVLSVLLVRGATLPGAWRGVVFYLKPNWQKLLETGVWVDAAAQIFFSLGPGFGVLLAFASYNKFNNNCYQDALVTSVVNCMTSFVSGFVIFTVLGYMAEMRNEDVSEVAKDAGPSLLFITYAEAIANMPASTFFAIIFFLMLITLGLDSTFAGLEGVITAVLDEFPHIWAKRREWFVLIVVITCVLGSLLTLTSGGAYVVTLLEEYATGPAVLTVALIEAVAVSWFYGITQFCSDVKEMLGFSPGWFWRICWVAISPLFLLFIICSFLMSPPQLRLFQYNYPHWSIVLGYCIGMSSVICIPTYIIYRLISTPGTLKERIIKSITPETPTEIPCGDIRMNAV
Chain of Norepinephrine transporter (Q9WTR4 whole entry): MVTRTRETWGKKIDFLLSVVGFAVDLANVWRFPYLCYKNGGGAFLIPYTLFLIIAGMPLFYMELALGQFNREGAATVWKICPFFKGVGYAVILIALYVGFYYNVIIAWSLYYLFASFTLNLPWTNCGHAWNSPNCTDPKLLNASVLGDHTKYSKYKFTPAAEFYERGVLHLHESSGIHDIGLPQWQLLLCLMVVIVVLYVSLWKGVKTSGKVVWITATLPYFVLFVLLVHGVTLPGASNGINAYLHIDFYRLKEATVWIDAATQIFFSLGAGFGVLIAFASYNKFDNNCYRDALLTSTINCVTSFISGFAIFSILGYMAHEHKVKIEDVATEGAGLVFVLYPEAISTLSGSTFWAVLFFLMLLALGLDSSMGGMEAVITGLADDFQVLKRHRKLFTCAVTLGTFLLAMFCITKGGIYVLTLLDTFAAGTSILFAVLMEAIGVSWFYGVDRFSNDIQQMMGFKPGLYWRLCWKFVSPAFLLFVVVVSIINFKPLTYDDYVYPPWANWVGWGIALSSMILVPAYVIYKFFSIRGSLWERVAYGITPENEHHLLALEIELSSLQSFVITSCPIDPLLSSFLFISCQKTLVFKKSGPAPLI

As to `Fc1ccc(C(OC2CC3CCC(C2)N3CCNCc2ccccc2)c2ccc(F)cc2)cc1` (centres undefined), the IC50 in the data set listed under Rattus norvegicus was determined as 0.0081 µM.

Turning to `O=C(NCCN1C2CCC1CC(OC(c1ccc(F)cc1)c1ccc(F)cc1)C2)c1cccnc1` (centres undefined), in the data set listed under Rattus norvegicus, 0.0142 µM corresponded to half-maximal inhibition (IC50).

In the case of `Fc1ccc(C(OC2CC3CCC(C2)N3CCOCc2ccccc2)c2ccc(F)cc2)cc1` (centres undefined), the Ki in data set [1] came out at 1.3 µM; in data set [2], 0.39 µM; in data set [3], 0.0485 µM; in data set [4], 3.06 µM. The IC50 in the data set filed under Rattus norvegicus was determined as 0.0223 µM.

For `Fc1ccc(C(OC2CC3CCC(C2)N3CCOCCN2CCOCC2)c2ccc(F)cc2)cc1` (centres undefined), the Ki in data set [1] was 23 µM; in data set [2], 15.8 µM; in data set [3], 1.62 µM; in data set [4], 28.1 µM. This molecule also showed a logD in data set [5] of 2.05. In addition, the IC50 in the data set listed under Rattus norvegicus stood at 0.659 µM.

Regarding `OCCOCCN1C2CCC1CC(OC(c1ccc(F)cc1)c1ccc(F)cc1)C2` (centres undefined), the inhibitory constant (Ki) was found to be 14.3 µM in data set [1], 0.336 µM in data set [2], 0.0426 µM in data set [3] and 3.65 µM in data set [4]. In addition, the logD in data set [5] worked out at 2.01. This molecule also came in with an IC50 in the data set filed under Rattus norvegicus of 0.0489 µM.

For the molecule `Fc1ccc(C(OC2CC3CCC(C2)N3CCCOc2ccccc2)c2ccc(F)cc2)cc1` (centres undefined), the Ki in data set [1] was 7.73 µM; in data set [2], 9.28 µM; in data set [3] it was 0.703 µM; in data set [4], 12.1 µM. This molecule also registered an IC50 in the data set filed under Rattus norvegicus of 0.227 µM.

On to `COC(=O)[C@@H]1C2CC[C@@H](C[C@@H]1OC(=O)c1ccccc1)N2C` (single isomer, unassigned) [COCAINE], for which the logD in data set [5] was found to be 1.51.

For the molecule `Fc1ccc(C(OC2CC3CCC(C2)N3CCOCc2cccs2)c2ccc(F)cc2)cc1` (centres undefined), the inhibition constant (Ki) in data set [1] is 2.09 µM; in data set [2], 0.613 µM; in data set [3], 0.0659 µM; in data set [4], 3.45 µM. The logD in data set [5] is 4.19. The molecule further returned an IC50 in the data set filed under Rattus norvegicus of 0.0187 µM.

Take `NCCN1[C@@H]2CC[C@H]1C[C@@H](OC(c1ccc(F)cc1)c1ccc(F)cc1)C2`: the Ki was 4.6 µM in data set [1] and 1.42 µM in data set [4]. The IC50 in the data set filed under Rattus norvegicus turned out to be 0.026 µM.

As for `O=C(NCCN1C2CCC1CC(OC(c1ccc(F)cc1)c1ccc(F)cc1)C2)c1ccccc1` (centres undefined), the Ki in data set [1] worked out at 0.597 µM; in data set [2] it was 0.556 µM; in data set [3], 0.0131 µM; in data set [4] it was 0.637 µM. This molecule also registered an IC50 in the data set filed under Rattus norvegicus of 0.0065 µM.

Regarding `O=C(CCN1[C@@H]2CC[C@H]1C[C@@H](OC(c1ccc(F)cc1)c1ccc(F)cc1)C2)Nc1ccccc1`, the Ki in data set [1] worked out at 1.49 µM; in data set [2], 3.28 µM; in data set [3], 0.0276 µM; in data set [4] it was 1.42 µM. The molecule further had an IC50 in the data set listed under Rattus norvegicus of 0.005 µM.
